Results from patent US11571405B2, “Compositions for improving sexual function” (INXO A/S, priority 2018, dated 2023).

Columns and labels:
[1] = Inventors' findings on amounts of L-arginine and L-citrulline in the unit dosage; assay type: in vivo
Description: Furthermore, higher amounts of L-arginine worsened the organoleptic properties of the unit dosage.
In an embodiment of the invention, the unit dosage comprises L-citrulline or a physiologically acceptable salt or hydrate thereof in the range from 0.5-3.0 g, such as 0.5-2.9 g, preferably 0.5-2.8 g, more preferably 0.5-2.7 g, such as 0.7-2.0 g, preferably 0.9-2.0 g, more preferably 1.1-2.0 g, even more preferably 1.3-2.0 g, most preferably 1.5-2.0 g.

[2] = oral; cited from earlier work

NC(=O)NCCC[C@H](N)C(=O)O [L-citrulline]
amount above which efficacy of a unit dosage was not improved further (plateau of efficacy) [1]: above 2.0 g

N=C(N)NCCC[C@H](N)C(=O)O [L-arginine]
amount above which side effects occurred in some instances (e.g. stomachache) [1]: above 10 g | most efficacious amount in the unit dosage [1]: 6.0 g | level above which some adverse effects, most commonly diarrhea, have been seen [2]: above 20 g per day
